Experimental data: patent publication US20230035892A1, “METHODS AND COMPOSITIONS FOR TREATING CANCER” (Flagship Pioneering Innovations V, Inc., priority 2019, published 2023)

Legend:
Type in all cases: cell-based
[1] = tested on: pancreatic cancer cell lines; assay: Long-term colony formation assay (10-14 days); details: colony formation 10-14 days
From the text: Different concentrations of the compound of Formula III-26 were then used to evaluate its effect on pancreatic cancer cell line proliferation in a long-term colony formation assay (10-14 days).

[2] = tested on: PAXF1657 control empty vector; assay: 7-day CellTiter-Glo anti-proliferative assay; details: PAXF1657, sgNTC, pReceiver-empty vector, 5 or 10 point dose curve
Protocol: (§1) Cell lines were seeded into tissue culture treated, white-walled, 96-well plates at a density of 500 cells/well in RPM11640 media supplemented with 10% H.I. FBS and penicillin/streptomycin. Plates were incubated overnight at 37° C., 5% CO2 to allow cells to adhere to the wells. GRK2 small molecule antagonists were added to the cells using a ten-point or five-point dilution series with a final concentration ranging from […] in 0.1% DMSO. At the time of compound addition, a set of plates that were not treated with compounds were collected and cell viability was measured using CellTiter-Glo (Promega). CellTiter-Glo reagent was added to the plates and luminescence was measured using a Biotek Synergy plate reader. The compound treated cells were incubated for 3 days at 37° C., 5% CO2. The media was then aspirated from each well and replaced with fresh media containing GRK2 small molecule antagonists. The compound treated cells were then incubated for another 4 days at 37° C., 5% CO2 and cell viability was assessed at the end of the 7-day compound treatment by CellTiterGlo.

[3] = tested on: PAXF1657 stably overexpressing GRK2 cDNA; assay: 7-day CellTiter-Glo anti-proliferative assay; details: PAXF1657, sgNTC, pReceiver-GRK2, 5 or 10 point dose curve
Protocol: as §1

[4] = tested on: sgGrk2-expressing PAXF1657 cells; assay: Colony formation assay in sgGrk2-expressing cells (target specificity)
Protocol: (§2) To assess the target specificity of the GRK2 small molecule antagonist of Formula III-26, sgGRK2-expressing cells were treated with the compound of Formula III-26. If GRK2 knockout is complete and the compound of Formula III-26 inhibits only GRK2, the addition of the compound of Formula III-26 should not induce any additional growth defect compared to sgRNA KO alone. […] This is potentially due to the lower GRK2 knockout efficiency that can be achieved in PAXF1657 compared to Miapaca2, as shown in Table 16.

[5] = tested on: sgGrk2-expressing Miapaca2 cells; assay: as above; details: Miapaca
Protocol: as §2

[6] = 168 h, read-out: Maximum % Growth inhibition relative to DMSO, geometric mean
[7] = PAXF1657, 1 μM, sgGRK2-2 (SEQ ID NO: 3)
[8] = PAXF1657, 1 μM, sgGRK2-3 (SEQ ID NO: 4)
[9] = PAXF1657, 3 μM, sgGRK2-2 (SEQ ID NO: 3)
[10] = PAXF1657, 3 μM, sgGRK2-3 (SEQ ID NO: 4)

## Cn1c(CNc2cccc(C(=O)NCc3ccccc3C(F)(F)F)c2)nnc1-c1ccncc1 [Compound of Formula III-26]
[1]; BXPC3, 0.1 μM
  Mean intensity: 396.24
  Normalized to DMSO: 0.99
[1]; BXPC3, 0.3 μM
  Mean intensity: 445.015
  Normalized to DMSO: 1.11
[1]; BXPC3, 1 μM
  Mean intensity: 418.98
  Normalized to DMSO: 1.04
[1]; BXPC3, 3 μM
  Mean intensity: 189.24
  Normalized to DMSO: 0.47
[1]; BXPC3, 10 μM
  Mean intensity: 82.2
  Normalized to DMSO: 0.20
[1]; BXPC3, 30 μM
  Mean intensity: 76.19
  Normalized to DMSO: 0.19
[1]; Miapaca, 0.1 μM
  Mean intensity: 447.5
  Normalized to DMSO: 1.09
[1]; Miapaca, 0.3 μM
  Mean intensity: 461.465
  Normalized to DMSO: 1.13
[1]; Miapaca, 1 μM
  Mean intensity: 398.675
  Normalized to DMSO: 0.97
[1]; Miapaca, 3 μM
  Mean intensity: 386.35
  Normalized to DMSO: 0.94
[1]; Miapaca, 10 μM
  Mean intensity: 80.16
  Normalized to DMSO: 0.20
[1]; Miapaca, 30 μM
  Mean intensity: 75.66
  Normalized to DMSO: 0.18
[1]; PAXF1657, 0.1 μM
  Mean intensity: 617.13
  Normalized to DMSO: 0.97
[1]; PAXF1657, 0.3 μM
  Mean intensity: 660.9
  Normalized to DMSO: 1.04
[1]; PAXF1657, 1 μM
  Mean intensity: 574.375
  Normalized to DMSO: 0.90
[1]; PAXF1657, 3 μM
  Mean intensity: 410.77
  Normalized to DMSO: 0.64
[1]; PAXF1657, 10 μM
  Mean intensity: 326.68
  Normalized to DMSO: 0.51
[1]; PAXF1657, 30 μM
  Mean intensity: 271.275
  Normalized to DMSO: 0.43
[1]; PAXF1997, 0.1 μM
  Mean intensity: 461.65
  Normalized to DMSO: 1.07
[1]; PAXF1997, 0.3 μM
  Mean intensity: 500.34
  Normalized to DMSO: 1.16
[1]; PAXF1997, 1 μM
  Mean intensity: 455.7
  Normalized to DMSO: 1.06
[1]; PAXF1997, 3 μM
  Mean intensity: 379.285
  Normalized to DMSO: 0.88
[1]; PAXF1997, 10 μM
  Mean intensity: 296.635
  Normalized to DMSO: 0.69
[1]; PAXF1997, 30 μM
  Mean intensity: 288.38
  Normalized to DMSO: 0.67
[1]; Panc1, 0.1 μM
  Mean intensity: 477.265
  Normalized to DMSO: 1.16
[1]; Panc1, 0.3 μM
  Mean intensity: 478.195
  Normalized to DMSO: 1.17
[1]; Panc1, 1 μM
  Mean intensity: 509.365
  Normalized to DMSO: 1.24
[1]; Panc1, 3 μM
  Mean intensity: 504.735
  Normalized to DMSO: 1.23
[1]; Panc1, 10 μM
  Mean intensity: 254.47
  Normalized to DMSO: 0.62
[1]; Panc1, 30 μM
  Mean intensity: 181.7
  Normalized to DMSO: 0.44
[2]; [6]
  Emax: 61%
[2]; read-out: GI50, geometric mean
  GI50: 9.49 µM
[3]; [6]
  Emax: 24.8%
[3]; read-out: GI50, geometric mean
  GI50: > 10 µM
[4]; [7]
  Difference between rel +dox and −dox signal: 0.45
  Rel +dox: 0.44
  Rel −dox: 0.89
[4]; [8]
  Difference between rel +dox and −dox signal: 0.37
  Rel +dox: 0.40
  Rel −dox: 0.78
[4]; PAXF1657, 1 μM, sgGRK2-pooled
  Difference between rel +dox and −dox signal: 0.29
  Rel +dox: 0.49
  Rel −dox: 0.78
[4]; PAXF1657, 1 μM, sgNTC
  Difference between rel +dox and −dox signal: −0.04
  Rel +dox: 0.78
  Rel −dox: 0.73
[4]; [9]
  Difference between rel +dox and −dox signal: 0.26
  Rel +dox: 0.41
  Rel −dox: 0.67
[4]; [10]
  Difference between rel +dox and −dox signal: 0.32
  Rel +dox: 0.22
  Rel −dox: 0.55
[4]; PAXF1657, 3 μM, sgGRK2-pooled
  Difference between rel +dox and −dox signal: 0.11
  Rel +dox: 0.48
  Rel −dox: 0.59
[4]; PAXF1657, 3 μM, sgNTC
  Difference between rel +dox and −dox signal: 0.01
  Rel +dox: 0.56
  Rel −dox: 0.57
[5]; 1 μM, sgGRK2-pooled
  Difference between rel +dox and −dox signal: 0.00
  Rel +dox: 0.76
  Rel −dox: 0.75
[5]; 1 μM, sgNTC
  Difference between rel +dox and −dox signal: 0.05
  Rel +dox: 0.77
  Rel −dox: 0.81
[5]; 3 μM, sgGRK2-pooled
  Difference between rel +dox and −dox signal: 0.04
  Rel +dox: 0.43
  Rel −dox: 0.47
[5]; 3 μM, sgNTC
  Difference between rel +dox and −dox signal: 0.12
  Rel +dox: 0.53
  Rel −dox: 0.65
